Assay results as given in paper PMC8576818, “The ethoxycarbonyl group as both activating and protective group in N-acyl-Pictet–Spengler reactions using methoxystyrenes. A short approach to racemic 1-benzyltetrahydroisoquinoline alkaloids” (Beilstein Journal of Organic Chemistry, 2021).

Columns and labels:
[1] = target: T1, two-pore channel 2 (TPC2) (Homo sapiens, UniProt Q8NHX9, L11A/L12A); assay: fluo-4 Ca2+ FLIPR assay in HEK293 cells stably expressing hTPC2, stimulated with TPC2-A1-P or TPC2-A1-N; assay type: cell-based
T1 construct: gene TPCN2; human TPC2, C-terminally RFP-tagged, rerouted to the plasma membrane (hTPC2L11A/L12A)
T1 sequence (Q8NHX9 whole entry L11A/L12A): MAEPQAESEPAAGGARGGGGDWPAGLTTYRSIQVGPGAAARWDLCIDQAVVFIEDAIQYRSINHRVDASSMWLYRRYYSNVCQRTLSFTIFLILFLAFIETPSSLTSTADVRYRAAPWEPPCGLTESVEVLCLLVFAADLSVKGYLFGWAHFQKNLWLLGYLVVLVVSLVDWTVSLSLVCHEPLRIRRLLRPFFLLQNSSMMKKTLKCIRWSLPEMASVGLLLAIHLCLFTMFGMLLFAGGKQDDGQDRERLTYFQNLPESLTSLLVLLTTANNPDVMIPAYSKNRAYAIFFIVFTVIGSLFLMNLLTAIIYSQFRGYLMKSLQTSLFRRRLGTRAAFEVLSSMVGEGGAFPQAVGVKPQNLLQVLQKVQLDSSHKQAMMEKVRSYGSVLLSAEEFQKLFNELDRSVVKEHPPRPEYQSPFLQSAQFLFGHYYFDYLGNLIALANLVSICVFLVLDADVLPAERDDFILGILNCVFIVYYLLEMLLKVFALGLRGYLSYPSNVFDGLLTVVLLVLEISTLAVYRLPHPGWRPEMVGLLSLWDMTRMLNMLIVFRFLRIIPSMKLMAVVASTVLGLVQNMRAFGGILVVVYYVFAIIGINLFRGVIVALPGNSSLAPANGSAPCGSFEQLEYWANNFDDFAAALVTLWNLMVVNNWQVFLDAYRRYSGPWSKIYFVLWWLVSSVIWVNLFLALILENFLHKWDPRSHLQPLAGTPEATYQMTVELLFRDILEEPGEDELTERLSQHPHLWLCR

[2] = target: T2, P-glycoprotein (P-gp) (Homo sapiens, UniProt P08183); assay: calcein-AM retention by flow cytometry in VCR-R CEM cells at […]; assay type: cell-based
T2 construct: gene ABCB1; P-glycoprotein overexpressing VCR-R CEM cells
T2 sequence (P08183 whole entry): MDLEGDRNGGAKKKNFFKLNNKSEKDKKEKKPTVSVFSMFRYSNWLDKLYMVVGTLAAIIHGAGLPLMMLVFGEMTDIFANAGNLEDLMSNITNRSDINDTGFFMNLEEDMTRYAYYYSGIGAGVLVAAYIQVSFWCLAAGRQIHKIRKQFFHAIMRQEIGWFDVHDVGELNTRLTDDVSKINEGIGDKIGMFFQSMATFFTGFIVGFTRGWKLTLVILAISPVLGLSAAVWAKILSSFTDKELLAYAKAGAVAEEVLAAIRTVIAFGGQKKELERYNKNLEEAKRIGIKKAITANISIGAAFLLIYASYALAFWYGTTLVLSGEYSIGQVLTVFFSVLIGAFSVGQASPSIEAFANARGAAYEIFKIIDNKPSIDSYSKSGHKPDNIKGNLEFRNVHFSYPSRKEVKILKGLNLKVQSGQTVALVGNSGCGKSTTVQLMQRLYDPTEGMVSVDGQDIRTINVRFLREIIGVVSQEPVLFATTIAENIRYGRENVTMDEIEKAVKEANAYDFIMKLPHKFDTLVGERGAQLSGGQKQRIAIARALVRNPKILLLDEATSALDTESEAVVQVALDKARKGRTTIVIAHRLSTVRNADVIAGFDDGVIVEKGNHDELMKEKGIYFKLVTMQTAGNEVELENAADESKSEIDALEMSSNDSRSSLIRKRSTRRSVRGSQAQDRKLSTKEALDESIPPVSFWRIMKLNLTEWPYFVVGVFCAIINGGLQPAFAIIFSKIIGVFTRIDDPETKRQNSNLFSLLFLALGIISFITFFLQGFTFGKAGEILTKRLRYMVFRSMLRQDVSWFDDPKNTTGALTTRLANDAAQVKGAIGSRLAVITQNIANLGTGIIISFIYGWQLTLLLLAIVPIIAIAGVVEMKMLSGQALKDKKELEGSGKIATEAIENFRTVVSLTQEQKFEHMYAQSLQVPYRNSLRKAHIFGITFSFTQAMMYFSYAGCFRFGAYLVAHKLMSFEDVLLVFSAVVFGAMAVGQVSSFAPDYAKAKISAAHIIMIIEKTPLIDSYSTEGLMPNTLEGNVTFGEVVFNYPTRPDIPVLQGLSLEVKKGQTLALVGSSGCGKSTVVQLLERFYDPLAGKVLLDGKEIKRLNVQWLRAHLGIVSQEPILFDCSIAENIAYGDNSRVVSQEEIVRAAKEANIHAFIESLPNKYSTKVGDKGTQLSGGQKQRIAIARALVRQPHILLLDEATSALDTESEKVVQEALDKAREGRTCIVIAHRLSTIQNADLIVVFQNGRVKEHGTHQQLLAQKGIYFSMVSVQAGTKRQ

SMILES | IC50 [1] | calcein-AM retention by flow cytometry in VCR-R CEM cells at 10 μM [2]
COc1ccc2cc1Oc1ccc(cc1)C[C@H]1c3c(cc4c(c3Oc3cc5c(cc3OC)CCN(C)[C@@H]5C2)OCO4)CCN1C [cepharanthine] | 3.6/57 µM | –
COc1ccc2cc1Oc1ccc(cc1)C[C@H]1c3cc(c(OC)cc3CCN1C)Oc1c(OC)c(OC)cc3c1[C@H](C2)N(C)CC3 [tetrandrine] | 31/21 µM | indicating no P-glycoprotein inhibition. Tetrandrine served as positive control (Figure 5C).
